Experimental data as given in the NIST ThermoML archive (doi:10.1021/acs.jced.8b01008).
± gives the expanded uncertainty stated by the source.

Settings: 100 kPa, Liquid, Falling or rolling sphere viscometry

O [water]
Settings | viscosity [mPa·s]
288.15 K | 1.122 ± 0.035
293.15 K | 0.99 ± 0.031
298.15 K | 0.882 ± 0.027
303.15 K | 0.793 ± 0.025
308.15 K | 0.719 ± 0.022
313.15 K | 0.656 ± 0.02
318.15 K | 0.602 ± 0.019
